Patent US8247211B2, “Glycopeptide antibiotics” (American Cyanamid Company, priority 2001, dated 2012)
Values after ≈ are worked out from the molar mass of the structure shown.

Assays:
[1] = tested on: Enterococcus sp.; assay: In vitro antibacterial evaluation: minimum inhibitory concentration (MIC), broth dilution method; type: cell-based; conditions: broth dilution, 5×10^5 CFU/mL, 18 hours at 35° C.
How it was run: (§1)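 Susceptibility determined by NCCLS-recommended broth dilution (M7-A2), Muller-Hinton II […]. Concentration span 64-0.06 μg/mL, inoculum 5×10^5 CFU/mL. Isolates include strains resistant to methicillin, penicillin and/or vancomycin.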

[2] = tested on: Escherichia coli; assay: as above; type: cell-based; conditions: 5×10^5 CFU/mL, 18 hours at 35° C.
How it was run: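 Values are minimum inhibitory concentrations, meaning the smallest antibiotic concentration that stops growth of the organism. They come from broth dilution in Muller-Hinton II […] per NCCLS guidance (M7-A2), using 5×10^5 CFU/mL and concentrations from 64 to 0.06 μg/mL.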

[3] = tested on: Staphylococcus sp.; assay: as above; type: cell-based; conditions: for MIC Staphylococcus aureus (ATCC 29213): strain ATCC 29213; for MIC Staphylococcus aureus (GC 1131): strain GC 1131; for MIC Staphylococcus aureus (GC 3051): strain GC 3051; for MIC Staphylococcus aureus (GC 3053): strain GC 3053; for MIC Staphylococcus aureus (GC 4541): strain GC 4541; for MIC Staphylococcus aureus (GC 4542): strain GC 4542; for MIC Staphylococcus aureus (GC 4544): strain GC 4544; for MIC Staphylococcus aureus (GC 4545): strain GC 4545
How it was run: as §1

[4] = tested on: Streptococcus sp.; assay: as above; type: cell-based; conditions: broth dilution, 5×10^5 CFU/mL, 18 hours at 35° C.
How it was run: as §1

[5] = tested on: Enterococcus faecalis (GC 6189), vancomycin resistant strain; assay: Acute lethal infection in mice (ED50); type: in vivo; conditions: female CD-1 mice, intraperitoneal challenge, intravenous dose 30 min. after infection, 7 day survival ratios
How it was run: (§2)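 IP bacterial challenge, female CD-1 mice; inoculum lethal to untreated controls in 24-48 hr. IV dosing in saline or 5% dextrose 30 min post-infection, 5 mice/dose. ED50 from 7-day survival, 3 tests pooled.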

[6] = tested on: Staphylococcus aureus-SMITH (GC 4543); assay: Acute lethal infection in mice (ED50); type: in vivo; conditions: female CD-1 mice, intraperitoneal challenge, intravenous dose 30 min. after infection, 7 day survival ratios
How it was run: as §2

[7] = broth dilution, 5×10^5 CFU/mL, 18 hours at 35° C.
[8] = broth dilution, 18 hours at 35° C.
[9] = strain GC 4543, broth dilution, 18 hours at 35° C.
[10] = strain GC 4546, broth dilution, 18 hours at 35° C.
[11] = strain GC 4547, broth dilution, 18 hours at 35° C.
[12] = strain GC 4548, broth dilution, 18 hours at 35° C.
[13] = strain GC 4549, broth dilution, 18 hours at 35° C.
[14] = strain GC 4551, broth dilution, 18 hours at 35° C.
[15] = strain GC 6257, broth dilution, 18 hours at 35° C.

Cc1cccc(C2OCC3OC(OC4C(CO)OC(Oc5ccc(CC6NC(=O)C(C(C)c7ccccc7)NC(=O)CNC(=O)C(CO)NC(=O)C(C(O)C7CNC(=N)N7C7OC(CO)C(O)C(O)C7O)NC(=O)C(C(O)C7CNC(=N)N7)NC6=O)cc5)C(O)C4O)C(O)C(O)C3O2)c1 (stereo not drawn) [Example 135, Cyclo[glycyl-β-methylphenylalanyl-O-[4-O-[4,6-O-(3-methylbenzylidene)hexopyranosyl]-hexopyranosyl]tyrosyl-3-(2-iminoimidazolidin-4-yl)seryl-3-(3-hexopyranosyl-2-iminoimidazolidin-4-yl)serylseryl]]
MIC Enterococccus avium (GC 4558) [1]: 2 µg/mL (≈ 1.43 µM) | MIC Enterococccus faecalis (ATCC 29212) [1]: 2 µg/mL (≈ 1.43 µM) | MIC Enterococccus faecalis (GC 2691) [1]: 2 µg/mL (≈ 1.43 µM) | MIC Enterococccus faecalis (GC 3059) [1]: 2 µg/mL (≈ 1.43 µM) | MIC Enterococccus faecalis (GC 4552) [1]: 2 µg/mL (≈ 1.43 µM) | MIC Enterococccus faecalis (GC 4553) [1]: 2 µg/mL (≈ 1.43 µM) | MIC Enterococccus faecalis (GC 4554) [1]: 2 µg/mL (≈ 1.43 µM) | MIC Enterococccus faecalis (GC 6189) [1]: 2 µg/mL (≈ 1.43 µM) | MIC Enterococccus faecium (GC 2243) [1]: 2 µg/mL (≈ 1.43 µM) | MIC Enterococccus faecium (GC 4556) [1]: 2 µg/mL (≈ 1.43 µM) | MIC Enterococccus faecium (GC 4557) [1]: 2 µg/mL (≈ 1.43 µM) | MIC Enterococcus faecalis (GC 2242) [1]: 2 µg/mL (≈ 1.43 µM) | MIC Escherichia coli (ATCC 25922) [2]: 32 µg/mL (≈ 22.9 µM) | MIC Escherichia coli (GC 4559) [2]: 32 µg/mL (≈ 22.9 µM) | MIC Escherichia coli (GC 4560) [2]: 0.5 µg/mL (≈ 0.358 µM) | MIC Coagulase Negative Staphylococcus (GC 4547) [3, 7]: 1 µg/mL (≈ 0.716 µM) | MIC Coagulase Negative Staphylococcus (GC 4548) [3, 7]: 0.5 µg/mL (≈ 0.358 µM) | MIC Coagulase Negative Staphylococcus (GC 4549) [3, 7]: 0.5 µg/mL (≈ 0.358 µM) | MIC Coagulase Negative Staphylococcus (GC 4551) [3, 7]: 1 µg/mL (≈ 0.716 µM) | MIC Coagulase Negative Staphylococcus (GC 6257) [3, 7]: 0.5 µg/mL (≈ 0.358 µM) | MIC Staphylococcus aureus-SMITH (GC 4543) [3, 7]: 1 µg/mL (≈ 0.716 µM) | MIC Staphylococcus haemolyticus (GC 4546) [3, 7]: 0.5 µg/mL (≈ 0.358 µM) | MIC Staphylococcus aureus (ATCC 29213) [3]: 1 µg/mL (≈ 0.716 µM) | MIC Staphylococcus aureus (ATCC 29213) [3, 8]: 1 µg/mL (≈ 0.716 µM) | MIC Staphylococcus aureus (GC 1131) [3]: 1 µg/mL (≈ 0.716 µM) | MIC Staphylococcus aureus (GC 1131) [3, 8]: 1 µg/mL (≈ 0.716 µM) | MIC Staphylococcus aureus (GC 3051) [3]: 1 µg/mL (≈ 0.716 µM) | MIC Staphylococcus aureus (GC 3051) [3, 8]: 1 µg/mL (≈ 0.716 µM) | MIC Staphylococcus aureus (GC 3053) [3]: 1 µg/mL (≈ 0.716 µM) | MIC Staphylococcus aureus (GC 3053) [3, 8]: 1 µg/mL (≈ 0.716 µM) | MIC Staphylococcus aureus (GC 4541) [3]: 1 µg/mL (≈ 0.716 µM) | MIC Staphylococcus aureus (GC 4541) [3, 8]: 1 µg/mL (≈ 0.716 µM) | MIC Staphylococcus aureus (GC 4542) [3]: 1 µg/mL (≈ 0.716 µM) | MIC Staphylococcus aureus (GC 4542) [3, 8]: 1 µg/mL (≈ 0.716 µM) | MIC Staphylococcus aureus-SMITH (GC 4543) [3, 9]: 1 µg/mL (≈ 0.716 µM) | MIC Staphylococcus aureus (GC 4544) [3]: 2 µg/mL (≈ 1.43 µM) | MIC Staphylococcus aureus (GC 4544) [3, 8]: 2 µg/mL (≈ 1.43 µM) | MIC Staphylococcus aureus (GC 4545) [3]: 1 µg/mL (≈ 0.716 µM) | MIC Staphylococcus aureus (GC 4545) [3, 8]: 1 µg/mL (≈ 0.716 µM) | MIC Staphylococcus haemolyticus (GC 4546) [3, 10]: 0.5 µg/mL (≈ 0.358 µM) | MIC Coagulase Negative Staphylococcus (GC 4547) [3, 11]: 1 µg/mL (≈ 0.716 µM) | MIC Coagulase Negative Staphylococcus (GC 4548) [3, 12]: 0.5 µg/mL (≈ 0.358 µM) | MIC Coagulase Negative Staphylococcus (GC 4549) [3, 13]: 0.5 µg/mL (≈ 0.358 µM) | MIC Coagulase Negative Staphylococcus (GC 4551) [3, 14]: 1 µg/mL (≈ 0.716 µM) | MIC Coagulase Negative Staphylococcus (GC 6257) [3, 15]: 0.5 µg/mL (≈ 0.358 µM) | MIC Streptococcus agalactiae (GC 4564) [4]: 0.25 µg/mL (≈ 0.179 µM) | MIC Streptococcus pneumoniae (GC 1894) [4]: <0.06 µg/mL | MIC Streptococcus pneumoniae (GC 4565) [4]: <0.06 µg/mL | MIC Streptococcus pneumonine (ATCC 6301) [4]: <0.06 µg/mL | MIC Streptococcus pyogenes (GC 4563) [4]: 0.25 µg/mL (≈ 0.179 µM) | median effective dose (ED50), Enterococcus faecalis (GC 6189) [5]: 0.26 mg/kg | median effective dose (ED50), Staphylococcus aureus-SMITH (GC 4543) [6]: 0.07 mg/kg

Cc1ccc(CC2OCC3OC(OC4C(CO)OC(Oc5ccc(CC6NC(=O)C(C(C)c7ccccc7)NC(=O)CNC(=O)C(CO)NC(=O)C(C(O)C7CNC(=N)N7C7OC(CO)C(O)C(O)C7O)NC(=O)C(C(O)C7CNC(=N)N7)NC6=O)cc5)C(O)C4O)C(O)C(O)C3O2)cc1 (stereo not drawn) [Example 119, Cyclo[glycyl-β-methylphenylalanyl-O-[4-O-[4,6-O-(4-methylphenethylidene)hexopyranosyl]-hexopyranosyl]tyrosyl-3-(2-iminoimidazolidin-4-yl)seryl-3-(3-hexopyranosyl-2-iminoimidazolidin-4-yl)serylseryl]]
MIC Enterococccus avium (GC 4558) [1]: 4 µg/mL (≈ 2.83 µM) | MIC Enterococccus faecalis (ATCC 29212) [1]: 2 µg/mL (≈ 1.42 µM) | MIC Enterococccus faecalis (GC 2691) [1]: 2 µg/mL (≈ 1.42 µM) | MIC Enterococccus faecalis (GC 3059) [1]: >64 µg/mL | MIC Enterococccus faecalis (GC 4552) [1]: 2 µg/mL (≈ 1.42 µM) | MIC Enterococccus faecalis (GC 4553) [1]: 4 µg/mL (≈ 2.83 µM) | MIC Enterococccus faecalis (GC 4554) [1]: 2 µg/mL (≈ 1.42 µM) | MIC Enterococccus faecalis (GC 6189) [1]: 2 µg/mL (≈ 1.42 µM) | MIC Enterococccus faecium (GC 2243) [1]: 4 µg/mL (≈ 2.83 µM) | MIC Enterococccus faecium (GC 4556) [1]: 2 µg/mL (≈ 1.42 µM) | MIC Enterococccus faecium (GC 4557) [1]: 1 µg/mL (≈ 0.708 µM) | MIC Enterococcus faecalis (GC 2242) [1]: 2 µg/mL (≈ 1.42 µM) | MIC Escherichia coli (ATCC 25922) [2]: 32 µg/mL (≈ 22.7 µM) | MIC Escherichia coli (GC 4559) [2]: 32 µg/mL (≈ 22.7 µM) | MIC Escherichia coli (GC 4560) [2]: 1 µg/mL (≈ 0.708 µM) | MIC Staphylococcus aureus (ATCC 29213) [3]: 1 µg/mL (≈ 0.708 µM) | MIC Staphylococcus aureus (ATCC 29213) [3, 8]: 1 µg/mL (≈ 0.708 µM) | MIC Staphylococcus aureus (GC 1131) [3]: 1 µg/mL (≈ 0.708 µM) | MIC Staphylococcus aureus (GC 1131) [3, 8]: 1 µg/mL (≈ 0.708 µM) | MIC Staphylococcus aureus (GC 3051) [3]: 1 µg/mL (≈ 0.708 µM) | MIC Staphylococcus aureus (GC 3051) [3, 8]: 1 µg/mL (≈ 0.708 µM) | MIC Staphylococcus aureus (GC 3053) [3]: 2 µg/mL (≈ 1.42 µM) | MIC Staphylococcus aureus (GC 3053) [3, 8]: 2 µg/mL (≈ 1.42 µM) | MIC Staphylococcus aureus (GC 4541) [3]: 1 µg/mL (≈ 0.708 µM) | MIC Staphylococcus aureus (GC 4541) [3, 8]: 1 µg/mL (≈ 0.708 µM) | MIC Staphylococcus aureus (GC 4542) [3]: 1 µg/mL (≈ 0.708 µM) | MIC Staphylococcus aureus (GC 4542) [3, 8]: 1 µg/mL (≈ 0.708 µM) | MIC Staphylococcus aureus-SMITH (GC 4543) ([3]; strain GC 4543, 18 hours at 35° C.): 1 µg/mL (≈ 0.708 µM) | MIC Staphylococcus aureus-SMITH (GC 4543) [3, 9]: 1 µg/mL (≈ 0.708 µM) | MIC Staphylococcus aureus (GC 4544) [3]: 1 µg/mL (≈ 0.708 µM) | MIC Staphylococcus aureus (GC 4544) [3, 8]: 1 µg/mL (≈ 0.708 µM) | MIC Staphylococcus aureus (GC 4545) [3]: 1 µg/mL (≈ 0.708 µM) | MIC Staphylococcus aureus (GC 4545) [3, 8]: 1 µg/mL (≈ 0.708 µM) | MIC Staphylococcus haemolyticus (GC 4546) ([3]; strain GC 4546): 1 µg/mL (≈ 0.708 µM) | MIC Staphylococcus haemolyticus (GC 4546) [3, 10]: 1 µg/mL (≈ 0.708 µM) | MIC Coagulase Negative Staphylococcus (GC 4547) ([3]; strain GC 4547): 1 µg/mL (≈ 0.708 µM) | MIC Coagulase Negative Staphylococcus (GC 4547) [3, 11]: 1 µg/mL (≈ 0.708 µM) | MIC Coagulase Negative Staphylococcus (GC 4548) ([3]; strain GC 4548): 1 µg/mL (≈ 0.708 µM) | MIC Coagulase Negative Staphylococcus (GC 4548) [3, 12]: 1 µg/mL (≈ 0.708 µM) | MIC Coagulase Negative Staphylococcus (GC 4549) ([3]; strain GC 4549): 1 µg/mL (≈ 0.708 µM) | MIC Coagulase Negative Staphylococcus (GC 4549) [3, 13]: 1 µg/mL (≈ 0.708 µM) | MIC Coagulase Negative Staphylococcus (GC 4551) ([3]; strain GC 4551): 1 µg/mL (≈ 0.708 µM) | MIC Coagulase Negative Staphylococcus (GC 4551) [3, 14]: 1 µg/mL (≈ 0.708 µM) | MIC Coagulase Negative Staphylococcus (GC 6257) ([3]; strain GC 6257): <0.5 µg/mL | MIC Coagulase Negative Staphylococcus (GC 6257) [3, 15]: <0.5 µg/mL | MIC Streptococcus agalactiae (GC 4564) [4]: <0.5 µg/mL | MIC Streptococcus pneumoniae (GC 1894) [4]: <0.5 µg/mL | MIC Streptococcus pneumoniae (GC 4565) [4]: 1 µg/mL (≈ 0.708 µM) | MIC Streptococcus pneumonine (ATCC 6301) [4]: <0.5 µg/mL | MIC Streptococcus pyogenes (GC 4563) [4]: <0.5 µg/mL | median effective dose (ED50), Enterococcus faecalis (GC 6189) [5]: 0.41 mg/kg | median effective dose (ED50), Staphylococcus aureus-SMITH (GC 4543) [6]: 0.19 mg/kg
